Results reported in patent EP4745135A1 (Gluetacs Therapeutics (Shanghai) Co., Ltd., priority 2023, dated 2025).

Assays:
[1] = tested on: Human acute T lymphocytic leukemia cell (Molt4); test: Tumor cell proliferation inhibition (CellTiter-Meiluncell luminescent cell viability assay); conditions: MOLT-4, 96 h; for inhibition at 0.01 µM: read-out: Inhibition Rate at 10 nM (%); for inhibition at 0.5 µM: read-out: Inhibition Rate at 500 nM (%)
[2] = tested on: Human myeloid monocytic leukemia cell (MV-4-11); test: as above; conditions: MV4-11, 96 h; for inhibition at 0.01 µM: read-out: Inhibition Rate at 10 nM (%); for inhibition at 0.5 µM: read-out: Inhibition Rate at 500 nM (%)
[3] = tested on: Human multiple myeloma cell (MM.1S); test: as above; conditions: Homo sapiens, MM1.S, 96 h; for inhibition at 0.01 µM: read-out: Inhibition Rate at 10 nM (%); for inhibition at 0.5 µM: read-out: Inhibition Rate at 500 nM (%)
[4] = target: T1, human Cereblon WT GST-tagged protein (Homo sapiens, UniProt Q96SW2); test: CRBN-binding affinity, HTRF (CEREBLON BINDING kit); conditions: for inhibition at 0.5 µM: read-out: Inhibition Rate at 0.5 µM (%); for inhibition at 2 µM: read-out: Inhibition Rate at 2 µM (%)
T1 construct: purchased CISBIO 64BDCRBNPEH

GSPT1 = test: Western blot, degradation of substrate protein in hPBMCs; assay type: cell-based, Human
WEE1 = target: T2, WEE1 (Homo sapiens, UniProt P30291+Q96SW2); test: as above; assay type: cell-based
T2 construct: effects of the compounds of the present disclosure on the expression of target proteins in cells; endogenous in cells; host or cells: human PBMCs (Milecell Biotechnologies)

IKZF1 = target: T3, IKZF1 (Homo sapiens, UniProt Q13422+Q96SW2); test: as above; assay type: cell-based
T3 construct: effects of the compounds of the present disclosure on the expression of target proteins in cells; endogenous in cells; host or cells: human PBMCs (Milecell Biotechnologies)

IKZF2 = target: T4, IKZF2 (Homo sapiens, UniProt Q96SW2+Q9UKS7); test: as above; assay type: cell-based
T4 construct: effects of the compounds of the present disclosure on the expression of target proteins in cells; endogenous in cells; host or cells: human PBMCs (Milecell Biotechnologies)

CK1α = target: T5, CK1α (Homo sapiens, UniProt P48729+Q96SW2); test: as above; assay type: cell-based
T5 construct: effects of the compounds of the present disclosure on the expression of target proteins in cells; endogenous in cells; host or cells: human PBMCs (Milecell Biotechnologies)

IKZF3 = target: T6, IKZF3 (Homo sapiens, UniProt Q96SW2+Q9UKT9); test: as above; assay type: cell-based
T6 construct: effects of the compounds of the present disclosure on the expression of target proteins in cells; endogenous in cells; host or cells: human PBMCs (Milecell Biotechnologies)

[5] = 24 hours treatment, compounds at 50 nM and 500 nM (concentration behind the class not stated)
[6] = Western blot, 24 hours of compound treatment, compounds tested at 50 nM and 500 nM (concentration for the table not stated)

T6 sequence (Q9UKT9 whole entry): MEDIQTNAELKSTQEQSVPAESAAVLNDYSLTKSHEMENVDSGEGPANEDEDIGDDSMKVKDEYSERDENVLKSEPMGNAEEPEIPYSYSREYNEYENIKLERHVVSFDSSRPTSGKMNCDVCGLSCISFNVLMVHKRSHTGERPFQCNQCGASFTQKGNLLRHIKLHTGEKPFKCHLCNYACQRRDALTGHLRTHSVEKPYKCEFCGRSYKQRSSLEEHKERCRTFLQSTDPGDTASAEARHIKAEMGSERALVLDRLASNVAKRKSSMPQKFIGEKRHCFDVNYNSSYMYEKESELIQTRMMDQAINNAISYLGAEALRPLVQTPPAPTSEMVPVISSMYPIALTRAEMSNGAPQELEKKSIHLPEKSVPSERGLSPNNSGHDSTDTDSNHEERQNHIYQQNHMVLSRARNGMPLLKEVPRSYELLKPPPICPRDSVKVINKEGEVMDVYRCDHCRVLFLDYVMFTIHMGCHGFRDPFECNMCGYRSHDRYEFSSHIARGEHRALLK
T6 sequence (Q96SW2 whole entry): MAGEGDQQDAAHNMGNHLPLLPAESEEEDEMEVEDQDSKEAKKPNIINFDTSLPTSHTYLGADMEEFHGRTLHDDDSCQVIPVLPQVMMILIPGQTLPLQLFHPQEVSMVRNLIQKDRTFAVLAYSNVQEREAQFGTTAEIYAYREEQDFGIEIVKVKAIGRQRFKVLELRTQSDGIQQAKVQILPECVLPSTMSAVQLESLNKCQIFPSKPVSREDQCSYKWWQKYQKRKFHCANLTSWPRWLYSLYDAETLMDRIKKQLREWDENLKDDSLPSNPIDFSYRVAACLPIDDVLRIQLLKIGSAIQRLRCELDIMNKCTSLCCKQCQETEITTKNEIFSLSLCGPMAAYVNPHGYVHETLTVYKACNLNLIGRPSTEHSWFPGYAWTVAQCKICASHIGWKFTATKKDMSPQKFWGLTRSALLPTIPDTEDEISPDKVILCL
T6 sequence (Q16531 whole entry partner): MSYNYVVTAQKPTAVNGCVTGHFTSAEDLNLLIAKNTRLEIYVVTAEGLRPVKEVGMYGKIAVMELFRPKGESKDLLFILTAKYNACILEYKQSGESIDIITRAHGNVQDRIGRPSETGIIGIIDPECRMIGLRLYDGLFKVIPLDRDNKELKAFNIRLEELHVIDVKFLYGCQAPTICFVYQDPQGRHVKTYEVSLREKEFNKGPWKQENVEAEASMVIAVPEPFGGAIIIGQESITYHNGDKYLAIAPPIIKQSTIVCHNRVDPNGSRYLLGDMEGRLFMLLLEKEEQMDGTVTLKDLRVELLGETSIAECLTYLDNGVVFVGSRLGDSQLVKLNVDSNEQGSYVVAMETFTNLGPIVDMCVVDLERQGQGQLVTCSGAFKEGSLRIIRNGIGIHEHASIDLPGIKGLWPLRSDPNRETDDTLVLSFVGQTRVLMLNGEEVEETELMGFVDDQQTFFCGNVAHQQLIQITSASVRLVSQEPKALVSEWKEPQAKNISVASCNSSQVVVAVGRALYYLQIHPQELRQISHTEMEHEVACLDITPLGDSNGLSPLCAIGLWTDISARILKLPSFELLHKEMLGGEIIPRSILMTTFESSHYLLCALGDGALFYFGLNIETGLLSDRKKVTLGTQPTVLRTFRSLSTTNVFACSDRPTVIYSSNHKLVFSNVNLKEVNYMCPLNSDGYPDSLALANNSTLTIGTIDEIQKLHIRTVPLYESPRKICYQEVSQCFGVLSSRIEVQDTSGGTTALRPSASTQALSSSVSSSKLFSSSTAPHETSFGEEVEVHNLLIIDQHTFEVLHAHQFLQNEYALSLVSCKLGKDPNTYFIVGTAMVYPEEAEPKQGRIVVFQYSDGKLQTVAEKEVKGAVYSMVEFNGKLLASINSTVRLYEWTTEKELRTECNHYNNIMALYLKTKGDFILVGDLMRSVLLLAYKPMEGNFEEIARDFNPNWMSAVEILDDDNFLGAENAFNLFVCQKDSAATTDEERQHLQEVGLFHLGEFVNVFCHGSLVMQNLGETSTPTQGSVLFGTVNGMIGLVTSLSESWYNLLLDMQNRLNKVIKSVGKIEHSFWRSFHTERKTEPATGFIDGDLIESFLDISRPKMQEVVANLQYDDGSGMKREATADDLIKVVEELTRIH
T1 sequence (Q96SW2 whole entry): as the sequence (Q96SW2 whole entry) above
T5 sequence (P48729 whole entry): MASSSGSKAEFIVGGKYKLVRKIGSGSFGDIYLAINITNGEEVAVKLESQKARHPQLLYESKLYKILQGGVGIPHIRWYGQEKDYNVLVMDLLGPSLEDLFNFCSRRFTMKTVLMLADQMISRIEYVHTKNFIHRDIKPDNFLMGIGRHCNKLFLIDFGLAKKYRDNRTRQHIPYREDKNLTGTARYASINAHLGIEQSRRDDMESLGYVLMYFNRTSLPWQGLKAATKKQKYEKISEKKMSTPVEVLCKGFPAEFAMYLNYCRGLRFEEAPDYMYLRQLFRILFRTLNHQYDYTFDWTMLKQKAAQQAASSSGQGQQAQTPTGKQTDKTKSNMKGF
T5 sequence (Q96SW2 whole entry): as the sequence (Q96SW2 whole entry) above
T5 sequence (Q16531 whole entry partner): as the sequence (Q16531 whole entry partner) above
T4 sequence (Q9UKS7 whole entry): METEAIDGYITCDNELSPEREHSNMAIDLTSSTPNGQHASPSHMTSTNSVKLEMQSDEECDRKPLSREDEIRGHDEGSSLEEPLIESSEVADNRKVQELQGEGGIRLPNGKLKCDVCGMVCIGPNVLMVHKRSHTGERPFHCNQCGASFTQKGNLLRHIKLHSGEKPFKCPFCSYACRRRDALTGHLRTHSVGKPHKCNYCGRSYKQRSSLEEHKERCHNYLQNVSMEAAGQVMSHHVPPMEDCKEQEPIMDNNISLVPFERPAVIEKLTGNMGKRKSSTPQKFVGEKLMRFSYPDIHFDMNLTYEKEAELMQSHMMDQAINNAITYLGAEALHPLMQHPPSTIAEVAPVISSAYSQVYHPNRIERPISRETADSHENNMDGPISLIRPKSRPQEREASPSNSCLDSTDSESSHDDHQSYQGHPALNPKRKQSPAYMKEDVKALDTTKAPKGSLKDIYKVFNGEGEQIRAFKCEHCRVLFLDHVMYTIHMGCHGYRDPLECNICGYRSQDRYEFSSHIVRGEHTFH
T4 sequence (Q96SW2 whole entry): as the sequence (Q96SW2 whole entry) above
T4 sequence (Q16531 whole entry partner): as the sequence (Q16531 whole entry partner) above
T3 sequence (Q13422 whole entry): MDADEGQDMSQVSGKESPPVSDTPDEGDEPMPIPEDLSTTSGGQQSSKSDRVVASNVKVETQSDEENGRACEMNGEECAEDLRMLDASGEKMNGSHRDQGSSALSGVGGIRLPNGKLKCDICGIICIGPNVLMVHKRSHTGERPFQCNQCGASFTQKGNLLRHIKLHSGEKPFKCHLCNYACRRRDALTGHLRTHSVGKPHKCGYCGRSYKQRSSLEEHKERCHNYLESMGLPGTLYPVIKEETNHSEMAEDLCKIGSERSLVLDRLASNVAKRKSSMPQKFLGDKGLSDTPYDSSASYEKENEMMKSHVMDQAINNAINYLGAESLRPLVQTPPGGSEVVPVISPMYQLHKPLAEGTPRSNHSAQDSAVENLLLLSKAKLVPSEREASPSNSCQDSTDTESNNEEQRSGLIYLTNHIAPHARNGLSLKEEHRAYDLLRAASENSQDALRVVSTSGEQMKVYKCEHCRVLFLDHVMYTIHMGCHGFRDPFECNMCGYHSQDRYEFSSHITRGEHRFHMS
T3 sequence (Q96SW2 whole entry): as the sequence (Q96SW2 whole entry) above
T3 sequence (Q16531 whole entry partner): as the sequence (Q16531 whole entry partner) above
T2 sequence (P30291 whole entry): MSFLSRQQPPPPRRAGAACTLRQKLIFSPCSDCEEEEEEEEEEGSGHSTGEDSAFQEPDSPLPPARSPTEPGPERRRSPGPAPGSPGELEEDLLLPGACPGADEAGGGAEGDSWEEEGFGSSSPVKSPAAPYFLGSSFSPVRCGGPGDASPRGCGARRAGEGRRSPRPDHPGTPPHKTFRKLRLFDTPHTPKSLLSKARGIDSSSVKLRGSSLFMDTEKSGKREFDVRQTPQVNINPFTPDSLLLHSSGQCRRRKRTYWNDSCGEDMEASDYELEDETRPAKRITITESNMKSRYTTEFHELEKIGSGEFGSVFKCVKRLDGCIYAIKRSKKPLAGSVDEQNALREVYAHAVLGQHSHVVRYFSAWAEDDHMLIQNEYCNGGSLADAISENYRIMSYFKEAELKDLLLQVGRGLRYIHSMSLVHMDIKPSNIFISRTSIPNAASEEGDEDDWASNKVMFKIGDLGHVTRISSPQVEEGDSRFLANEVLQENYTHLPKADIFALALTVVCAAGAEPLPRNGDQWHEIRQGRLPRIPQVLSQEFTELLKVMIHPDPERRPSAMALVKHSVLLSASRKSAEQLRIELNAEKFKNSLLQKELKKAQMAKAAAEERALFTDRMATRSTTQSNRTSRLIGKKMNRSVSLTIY
T2 sequence (Q96SW2 whole entry): as the sequence (Q96SW2 whole entry) above
T2 sequence (Q16531 whole entry partner): as the sequence (Q16531 whole entry partner) above

| inhibition at 0.5 µM [4] | inhibition at 2 µM [4] | SMILES | inhibition at 0.01 µM [1] | inhibition at 0.5 µM [1] | inhibition at 0.01 µM [2] | inhibition at 0.5 µM [2] | inhibition at 0.01 µM [3] | inhibition at 0.5 µM [3] | GSPT1 substrate protein remaining % (GSPT1; [5]) | Wee1 substrate protein remaining % (WEE1; [5]) | IKZF 1 substrate protein remaining % (IKZF1; [5]) | IKZF2 substrate protein remaining % (IKZF2; [5]) | CK1α substrate protein remaining % (CK1α; [5]) | IKZF3 substrate protein remaining % (IKZF3; [5]) | GSPT1 substrate protein remaining % (GSPT1; [6]) | Wee1 substrate protein remaining % (WEE1; [6]) | IKZF 1 substrate protein remaining % (IKZF1; [6]) | IKZF2 substrate protein remaining % (IKZF2; [6]) | CK1α substrate protein remaining % (CK1α; [6]) | IKZF3 substrate protein remaining % (IKZF3; [6]) |
| --- | --- | --- | --- | --- | --- | --- | --- | --- | --- | --- | --- | --- | --- | --- | --- | --- | --- | --- | --- | --- |
| 60 to 80% | 80 to 100% | O=C1CCC(N2Cc3cc(CN4CCN(c5nccc(Cl)c5Br)CC4)ccc3C2=S)C(=O)N1 (centres unmarked) [GT-09245, 3-(5-((4-(3-bromo-4-chloropyridin-2-yl)piperazin-1-yl)methyl)-1-thioxoisoindolin-2-yl)piperidine-2,6-dione] | 10 to 20% | 50 to 60% | 60 to 80% | 80 to 100% | 40 to 50% | 70 to 80% | A (0% ≤ substrate protein remaining % ≤ 80%) | B (80%< substrate protein remaining %≤ 100%) | A (0% ≤ substrate protein remaining % ≤ 80%) | A (0% ≤ substrate protein remaining % ≤ 80%) | B (80%< substrate protein remaining %≤ 100%) | B (80%< substrate protein remaining %≤ 100%) | – | – | – | – | – | – |
| 53 to 60% | 80 to 100% | O=C1CCC(N2Cc3cc(CN4CCC(c5ccccc5)CC4)ccc3C2=S)C(=O)N1 (centres unmarked) [GT-08616, 3-(5-((4-phenylpiperidin-1-yl)methyl)-1-thioxoisoindolin-2-yl)piperidine-2,6-dione] | 10 to 20% | 40 to 50% | -5 to 0% | 60 to 80% | 20 to 30% | 50 to 60% | – | – | – | – | – | – | A (0% ≤ substrate protein remaining % ≤ 80%) | B (80%< substrate protein remaining %≤ 100%) | B (80%< substrate protein remaining %≤ 100%) | B (80%< substrate protein remaining %≤ 100%) | B (80%< substrate protein remaining %≤ 100%) | B (80%< substrate protein remaining %≤ 100%) |
| 40 to 53% | 80 to 100% | O=C1CCC(N2Cc3cc(CN4CCC(c5ccccc5C(F)(F)F)CC4)ccc3C2=S)C(=O)N1 (centres unmarked) [GT-08622, 3-(1-thioxo-5-((4-(2-(trifluoromethyl)phenyl)piperidin-1-yl)methyl)isoindolin-2-yl)piperidine-2,6-dione] | -5 to 0% | 80 to 100% | 10 to 18% | 80 to 100% | 10 to 20% | 70 to 80% | – | – | – | – | – | – | A (0% ≤ substrate protein remaining % ≤ 80%) | B (80%< substrate protein remaining %≤ 100%) | B (80%< substrate protein remaining %≤ 100%) | A (0% ≤ substrate protein remaining % ≤ 80%) | B (80%< substrate protein remaining %≤ 100%) | B (80%< substrate protein remaining %≤ 100%) |
| 30 to 40% | 60 to 80% | O=C1CCC(N2Cc3cc(CN4CCN(c5cc(Cl)ccc5Cl)CC4)ccc3C2=S)C(=O)N1 (centres unmarked) [GT-08611, 3-(5-((4-(2,5-dichlorophenyl)piperazin-1-yl)methyl)-1-thioxoisoindolin-2-yl)piperidine-2,6-dione] | 0 to 5% | 70 to 80% | 18 to 25% | 80 to 100% | 20 to 30% | 50 to 60% | – | – | – | – | – | – | A (0% ≤ substrate protein remaining % ≤ 80%) | B (80%< substrate protein remaining %≤ 100%) | B (80%< substrate protein remaining %≤ 100%) | B (80%< substrate protein remaining %≤ 100%) | B (80%< substrate protein remaining %≤ 100%) | B (80%< substrate protein remaining %≤ 100%) |
